Test [1] concerns the target T1, Progesterone receptor (Homo sapiens, UniProt P06401).
T1 sequence (P06401 whole entry): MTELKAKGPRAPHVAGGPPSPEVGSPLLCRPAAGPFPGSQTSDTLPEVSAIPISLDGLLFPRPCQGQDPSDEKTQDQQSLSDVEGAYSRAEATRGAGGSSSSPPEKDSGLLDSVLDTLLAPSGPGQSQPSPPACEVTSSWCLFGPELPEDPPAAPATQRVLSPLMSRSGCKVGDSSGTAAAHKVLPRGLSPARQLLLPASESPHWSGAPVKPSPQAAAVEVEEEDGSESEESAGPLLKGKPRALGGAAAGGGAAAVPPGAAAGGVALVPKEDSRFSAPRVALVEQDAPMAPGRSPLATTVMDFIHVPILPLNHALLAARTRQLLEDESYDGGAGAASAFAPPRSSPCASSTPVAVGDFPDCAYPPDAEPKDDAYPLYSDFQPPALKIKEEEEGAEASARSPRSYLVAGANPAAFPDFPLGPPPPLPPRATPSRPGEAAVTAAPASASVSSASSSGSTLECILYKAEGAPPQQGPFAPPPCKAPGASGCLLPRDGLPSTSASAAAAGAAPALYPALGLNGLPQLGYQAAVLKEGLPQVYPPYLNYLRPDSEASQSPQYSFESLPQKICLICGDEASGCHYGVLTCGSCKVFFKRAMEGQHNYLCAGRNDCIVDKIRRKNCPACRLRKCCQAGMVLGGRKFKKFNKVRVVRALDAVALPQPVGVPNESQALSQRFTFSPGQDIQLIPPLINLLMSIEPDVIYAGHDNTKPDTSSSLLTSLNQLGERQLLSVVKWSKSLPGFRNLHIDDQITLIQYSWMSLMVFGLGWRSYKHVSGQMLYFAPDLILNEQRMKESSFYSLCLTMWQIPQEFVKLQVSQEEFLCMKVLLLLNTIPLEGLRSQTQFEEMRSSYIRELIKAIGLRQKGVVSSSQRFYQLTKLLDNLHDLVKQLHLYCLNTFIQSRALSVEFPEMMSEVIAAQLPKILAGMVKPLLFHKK
Put plainly: Effective concentration for agonist activity towards human progesterone receptor (hPR) using the cotransfection assay in CV-1 cells. The class given is functional, cell-based.

The target of test [2] is T2, Progesterone receptor (Homo sapiens) (UniProt P06401).
T2 sequence (whole entry): T1 sequence (P06401 whole entry)
In words: Antagonistic efficacy towards human progesterone receptor (hPR) using the cotransfection assay in CV-1 cells; Not active. The class given is functional, cell-based.

In test [3] the target is T1, Progesterone receptor. In words: Inhibitory concentration for antagonistic activity towards human progesterone receptor (hPR) using the cotransfection assay in CV-1 cells; Not active. It is filed as functional, cell-based.
In test [4] the target is T2, Progesterone receptor (Homo sapiens). Put plainly: Agonist efficacy towards human progesterone receptor (hPR) using the cotransfection assay in CV-1 cells. The class given is functional, cell-based.
Test [5] deals with T1, Progesterone receptor. In words: Binding affinity to human progesterone receptor.
Test [6] deals with T3, Mineralocorticoid receptor (Homo sapiens, UniProt P08235).
T3 sequence (P08235 whole entry): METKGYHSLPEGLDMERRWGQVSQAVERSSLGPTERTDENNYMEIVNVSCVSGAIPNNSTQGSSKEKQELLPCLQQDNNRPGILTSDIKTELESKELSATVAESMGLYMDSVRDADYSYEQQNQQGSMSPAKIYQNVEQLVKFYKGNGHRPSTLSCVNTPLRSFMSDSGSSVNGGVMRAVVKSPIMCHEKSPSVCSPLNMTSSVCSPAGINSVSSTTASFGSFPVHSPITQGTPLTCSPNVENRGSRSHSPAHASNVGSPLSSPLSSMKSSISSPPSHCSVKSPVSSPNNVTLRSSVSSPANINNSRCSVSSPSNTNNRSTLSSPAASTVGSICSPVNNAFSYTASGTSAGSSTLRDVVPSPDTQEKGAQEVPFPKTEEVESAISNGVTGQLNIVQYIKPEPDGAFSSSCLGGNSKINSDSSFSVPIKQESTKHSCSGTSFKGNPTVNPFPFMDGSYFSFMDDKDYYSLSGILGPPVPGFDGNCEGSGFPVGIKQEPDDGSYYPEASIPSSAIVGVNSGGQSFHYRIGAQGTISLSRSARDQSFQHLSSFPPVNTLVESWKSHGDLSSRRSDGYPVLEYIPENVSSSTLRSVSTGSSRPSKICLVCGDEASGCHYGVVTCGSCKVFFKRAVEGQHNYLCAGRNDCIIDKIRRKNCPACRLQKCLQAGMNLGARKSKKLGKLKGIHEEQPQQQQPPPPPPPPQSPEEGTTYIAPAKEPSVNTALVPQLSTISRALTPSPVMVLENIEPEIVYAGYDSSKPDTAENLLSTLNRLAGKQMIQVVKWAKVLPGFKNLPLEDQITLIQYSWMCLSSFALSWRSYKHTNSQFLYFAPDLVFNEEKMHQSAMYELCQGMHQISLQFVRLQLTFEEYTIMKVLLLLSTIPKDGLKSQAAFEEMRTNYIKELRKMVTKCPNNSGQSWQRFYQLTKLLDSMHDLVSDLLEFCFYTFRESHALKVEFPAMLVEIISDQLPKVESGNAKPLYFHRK
Put plainly: Antagonist activity at mineralocorticoid receptor (hMR); not active. It is filed as functional.

For test [7], the target named is T4, Estrogen receptor (Homo sapiens, UniProt Q92731+P03372). In words: Inhibitory activity against human Estrogen receptor; not active. The class given is protein assay.
Test [8] deals with T4, Estrogen receptor. In words: Antagonist efficacy with estrogen (hER) receptor; not active. It is filed as functional.
Test [9] addresses T5, Mineralocorticoid receptor (Homo sapiens) (UniProt P08235).
T5 sequence (whole entry): T3 sequence (P08235 whole entry)
In words: Antagonist efficacy at mineralocorticoid receptor (hMR); not active. It is filed as functional.

pEC50, pIC50, pKi: −log10 of the molar value. Activity calls are given as the source filed them. The rule behind the calls is not given here.

In general, pEC50 refers to the EC50 on a negative log10 scale, so that one unit is a factor of ten. Low values mean a high EC50, high ones a low EC50. The IC50 is the midpoint of a concentration-inhibition curve. For orientation: pKi means −log10 of the Ki, conventionally taken in molar units. A high value points to a low Ki. `CC/C(C)=C1\Oc2ccc(F)cc2-c2ccc3c(c21)C(C)=CC(C)(C)N3` gave a negative logarithm of the EC50 (pEC50) on Progesterone receptor [1] of 7.96. The Efficacy entry in [2] is “inactive”. On Progesterone receptor [3], the half-maximal inhibitory concentration (IC50) result is “Not Active”. In addition, the Efficacy in test [4] was found to be 112%. This compound gave a pKi at Progesterone receptor [5] of 8.10.

Broadly, the pIC50 is the IC50 on a negative log10 scale, so that one unit is a factor of ten. Lower therefore signals a high IC50. Consider `CC(C)=C/C=C1\Oc2ccc(F)cc2-c2ccc3c(c21)C(C)=CC(C)(C)N3`, for which, in [6], the pIC50 is less than 6.00. The compound further had a negative logarithm of the EC50 (pEC50) on Progesterone receptor [1] of 8.77. The Efficacy entry in test [2] was “inactive”. The results for the half-inhibitory concentration (IC50) entry against Progesterone receptor [3] and on Estrogen receptor [7] were “Not Active” and greater than 1000 nM, respectively. Also, the Efficacy is 172% in [4], less than 20% on Estrogen receptor [8] and less than 20% in test [9].

The compound `CC(=O)C[C@]1(C(C)=O)CC[C@H]2C3C[C@H](C)C4=CC(=O)CC[C@]4(C)[C@H]3CC[C@@]21C` (stereo partly specified) had a negative-log IC50 (pIC50) in test [6] of less than 6.00. The pEC50 at Progesterone receptor [1] was 9.82. In test [2], the Efficacy result was “inactive”. The results for the IC50 result on Progesterone receptor [3] and against Estrogen receptor [7] were “Not Active” and greater than 1000 nM, respectively. Further, the Efficacy is 80% in test [4], less than 20% on Estrogen receptor [8] and less than 20% in test [9]. In addition, at Progesterone receptor [5], the pKi is 9.47.

In the case of `CC1=CC(C)(C)Nc2ccc3c(c21)/C(=C/Br)Oc1ccc(F)cc1-3`, the pIC50 in test [6] was less than 6.00. Further, the pEC50 on Progesterone receptor [1] is 8.66. Further, in test [2], the Efficacy result is “inactive”. The half-inhibitory concentration (IC50) entry at Progesterone receptor [3] was “Not Active”; against Estrogen receptor [7], greater than 1000 nM. Moreover, the Efficacy in test [4] is 135%; on Estrogen receptor [8], less than 20%; in [9], less than 20%. Also, the negative logarithm of the Ki (pKi) at Progesterone receptor [5] is 8.68.

Values taken from ChEMBL document CHEMBL1136068 (Bioorg Med Chem Lett, 2003).
